Experimental data reported in PubChem BioAssay (NCI).
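Five concentrations, 48 hours, 96-well plates. GI50: concentration for 50% inhibition of growth. TGI marks complete inhibition of growth.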

Key:
Test in all cases: growth of human tumour cells (NCI), 48 h
HS 578T breast = tested on: HS 578T breast
SW-620 colon = tested on: SW-620 colon
A549 NSCLC = tested on: A549 NSCLC
CAKI-1 renal = tested on: CAKI-1 renal
EKVX NSCLC = tested on: EKVX NSCLC
NCI/ADR-RES ovarian = tested on: NCI/ADR-RES ovarian
UO-31 renal = tested on: UO-31 renal
RXF 393 renal = tested on: RXF 393 renal
MCF7 breast = tested on: MCF7 breast
OVCAR-8 ovarian = tested on: OVCAR-8 ovarian
BT-549 breast = tested on: BT-549 breast
COLO 205 colon = tested on: COLO 205 colon
OVCAR-4 ovarian = tested on: OVCAR-4 ovarian
786-0 renal = tested on: 786-0 renal
IGROV1 ovarian = tested on: IGROV1 ovarian
SNB-19 CNS = tested on: SNB-19 CNS
SF-268 CNS = tested on: SF-268 CNS
OVCAR-5 ovarian = tested on: OVCAR-5 ovarian
SF-295 CNS = tested on: SF-295 CNS
ACHN renal = tested on: ACHN renal
KM12 colon = tested on: KM12 colon
HCT-116 colon = tested on: HCT-116 colon
T-47D breast = tested on: T-47D breast
MDA-MB-435 = tested on: MDA-MB-435
SR leukemia = tested on: SR leukemia
UACC-257 melanoma = tested on: UACC-257 melanoma
RPMI-8226 leukemia = tested on: RPMI-8226 leukemia
DU-145 prostate = tested on: DU-145 prostate
U251 CNS = tested on: U251 CNS
HL-60(TB) leukemia = tested on: HL-60(TB) leukemia
NCI-H226 lung = tested on: NCI-H226 lung
SK-MEL-28 melanoma = tested on: SK-MEL-28 melanoma
HT29 colon = tested on: HT29 colon
HOP-92 NSCLC = tested on: HOP-92 NSCLC
MALME-3M melanoma = tested on: MALME-3M melanoma
SK-MEL-5 melanoma = tested on: SK-MEL-5 melanoma
SF-539 CNS = tested on: SF-539 CNS
NCI-H460 lung = tested on: NCI-H460 lung
TK-10 renal = tested on: TK-10 renal
HOP-62 NSCLC = tested on: HOP-62 NSCLC
OVCAR-3 ovarian = tested on: OVCAR-3 ovarian
SN12C renal = tested on: SN12C renal
NCI-H522 lung = tested on: NCI-H522 lung
HCT-15 colon = tested on: HCT-15 colon
SK-MEL-2 melanoma = tested on: SK-MEL-2 melanoma
MOLT-4 leukemia = tested on: MOLT-4 leukemia
NCI-H23 lung = tested on: NCI-H23 lung
MDA-MB-231 breast = tested on: MDA-MB-231 breast
SK-OV-3 ovarian = tested on: SK-OV-3 ovarian
K-562 leukemia = tested on: K-562 leukemia
LOX IMVI melanoma = tested on: LOX IMVI melanoma
CCRF-CEM leukemia = tested on: CCRF-CEM leukemia
PC-3 prostate = tested on: PC-3 prostate
M14 melanoma = tested on: M14 melanoma
SNB-75 CNS = tested on: SNB-75 CNS
UACC-62 melanoma = tested on: UACC-62 melanoma
A498 renal = tested on: A498 renal
HCC-2998 colon = tested on: HCC-2998 colon

## Clc1ccc(/C=C2\CCCC3C2=Nc2ccccc2NC3c2ccc(Cl)cc2)cc1 (stereo unspecified)
HS 578T breast
  GI50: 4040 nM
  TGI: > 27700 nM
SW-620 colon
  GI50: 2960 nM
  TGI: 10600 nM
A549 NSCLC
  GI50: 2880 nM
  TGI: 9110 nM
CAKI-1 renal
  GI50: 3950 nM
  TGI: 69900 nM
EKVX NSCLC
  GI50: 4070 nM
  TGI: 52500 nM
NCI/ADR-RES ovarian
  GI50: 4660 nM
  TGI: 52300 nM
UO-31 renal
  GI50: 3150 nM
  TGI: 12500 nM
RXF 393 renal
  GI50: 1810 nM
  TGI: 3470 nM
MCF7 breast
  GI50: 2920 nM
  TGI: > 34000 nM
OVCAR-8 ovarian
  GI50: 2750 nM
  TGI: 8310 nM
BT-549 breast
  GI50: 2240 nM
  TGI: 6810 nM
COLO 205 colon
  GI50: 3110 nM
  TGI: 8200 nM
OVCAR-4 ovarian
  GI50: 3770 nM
  TGI: > 52700 nM
786-0 renal
  GI50: 3480 nM
  TGI: 16200 nM
IGROV1 ovarian
  GI50: 3300 nM
  TGI: 10200 nM
SNB-19 CNS
  GI50: 7010 nM
  TGI: > 100000 nM
SF-268 CNS
  GI50: 4050 nM
  TGI: > 77700 nM
OVCAR-5 ovarian
  GI50: 8630 nM
  TGI: 22300 nM
SF-295 CNS
  GI50: 2710 nM
  TGI: 8460 nM
ACHN renal
  GI50: 4420 nM
  TGI: > 25400 nM
KM12 colon
  GI50: 2020 nM
  TGI: 3990 nM
HCT-116 colon
  GI50: 1590 nM
  TGI: 3020 nM
T-47D breast
  GI50: 6270 nM
  TGI: > 87900 nM
MDA-MB-435
  GI50: 2870 nM
  TGI: > 27600 nM
SR leukemia
  GI50: 2600 nM
  TGI: 6640 nM
UACC-257 melanoma
  GI50: 2140 nM
  TGI: 5880 nM
RPMI-8226 leukemia
  GI50: 1850 nM
  TGI: 5130 nM
DU-145 prostate
  GI50: 4390 nM
  TGI: 23900 nM
U251 CNS
  GI50: 2050 nM
  TGI: 4710 nM
HL-60(TB) leukemia
  GI50: 4850 nM
  TGI: 33000 nM
NCI-H226 lung
  GI50: 1910 nM
  TGI: 4190 nM
SK-MEL-28 melanoma
  GI50: 7150 nM
  TGI: 28400 nM
HT29 colon
  GI50: 2790 nM
  TGI: 7950 nM
HOP-92 NSCLC
  GI50: 7990 nM
  TGI: 37900 nM
MALME-3M melanoma
  GI50: 16800 nM
  TGI: 49200 nM
SK-MEL-5 melanoma
  GI50: 2910 nM
  TGI: 7190 nM
SF-539 CNS
  GI50: 4750 nM
  TGI: 47400 nM
NCI-H460 lung
  GI50: 4470 nM
  TGI: 16400 nM
TK-10 renal
  GI50: 11000 nM
  TGI: > 58500 nM
HOP-62 NSCLC
  GI50: 3860 nM
  TGI: 22100 nM
OVCAR-3 ovarian
  GI50: 3130 nM
  TGI: 9120 nM
SN12C renal
  GI50: 6810 nM
  TGI: 34200 nM
NCI-H522 lung
  GI50: 11600 nM
  TGI: 28500 nM
HCT-15 colon
  GI50: 2590 nM
  TGI: 7470 nM
SK-MEL-2 melanoma
  GI50: 31300 nM
  TGI: > 64800 nM
MOLT-4 leukemia
  GI50: 4520 nM
  TGI: 30400 nM
NCI-H23 lung
  GI50: 3430 nM
  TGI: 15700 nM
MDA-MB-231 breast
  GI50: 6990 nM
  TGI: 41700 nM
SK-OV-3 ovarian
  GI50: 7490 nM
  TGI: > 100000 nM
K-562 leukemia
  GI50: 3910 nM
  TGI: 27800 nM
LOX IMVI melanoma
  GI50: 1740 nM
  TGI: 3180 nM
CCRF-CEM leukemia
  GI50: 3180 nM
  TGI: > 35900 nM
PC-3 prostate
  GI50: 4450 nM
  TGI: > 41500 nM
M14 melanoma
  GI50: 2070 nM
  TGI: 5190 nM
SNB-75 CNS
  GI50: 12300 nM
  TGI: 57500 nM
UACC-62 melanoma
  GI50: 6700 nM
  TGI: 25400 nM
A498 renal
  GI50: 2150 nM
  TGI: 5790 nM
HCC-2998 colon
  GI50: 1920 nM
  TGI: 3550 nM

## Cc1c2cnccc2c(C)c2c1c1cc(CO)ccc1n2C
HS 578T breast
  GI50: 521 nM
  TGI: 3130 nM
SW-620 colon
  GI50: 116 nM
  TGI: 1390 nM
A549 NSCLC
  GI50: 330 nM
  TGI: 2070 nM
CAKI-1 renal
  GI50: 163 nM
  TGI: 1080 nM
EKVX NSCLC
  GI50: 325 nM
  TGI: 1290 nM
NCI/ADR-RES ovarian
  GI50: 187 nM
  TGI: 1930 nM
UO-31 renal
  GI50: 255 nM
  TGI: 1910 nM
RXF 393 renal
  GI50: 209 nM
  TGI: 1040 nM
MCF7 breast
  GI50: 203 nM
  TGI: 1370 nM
OVCAR-8 ovarian
  GI50: 178 nM
  TGI: 2450 nM
BT-549 breast
  GI50: 927 nM
  TGI: 2280 nM
COLO 205 colon
  GI50: 258 nM
  TGI: 1260 nM
OVCAR-4 ovarian
  GI50: 299 nM
  TGI: 1200 nM
786-0 renal
  GI50: 302 nM
  TGI: 2660 nM
IGROV1 ovarian
  GI50: 130 nM
  TGI: 1220 nM
SNB-19 CNS
  GI50: 299 nM
  TGI: 2370 nM
SF-268 CNS
  GI50: 268 nM
  TGI: 1690 nM
OVCAR-5 ovarian
  GI50: 244 nM
  TGI: 1180 nM
SF-295 CNS
  GI50: 316 nM
  TGI: 1660 nM
ACHN renal
  GI50: 66.5 nM
  TGI: 1160 nM
KM12 colon
  GI50: 303 nM
  TGI: 1820 nM
HCT-116 colon
  GI50: 45.4 nM
  TGI: 651 nM
T-47D breast
  GI50: 275 nM
  TGI: 3140 nM
MDA-MB-435
  GI50: 349 nM
  TGI: 1390 nM
SR leukemia
  GI50: 75.2 nM
UACC-257 melanoma
  GI50: 292 nM
  TGI: 1680 nM
RPMI-8226 leukemia
  GI50: 260 nM
  TGI: 1380 nM
DU-145 prostate
  GI50: 288 nM
  TGI: 1530 nM
U251 CNS
  GI50: 298 nM
  TGI: 1630 nM
HL-60(TB) leukemia
  GI50: 408 nM
  TGI: 2100 nM
NCI-H226 lung
  GI50: 109 nM
  TGI: 570 nM
SK-MEL-28 melanoma
  GI50: 384 nM
  TGI: 1560 nM
HT29 colon
  GI50: 257 nM
  TGI: 2730 nM
HOP-92 NSCLC
  GI50: 382 nM
  TGI: 2630 nM
MALME-3M melanoma
  GI50: 294 nM
  TGI: 1180 nM
SK-MEL-5 melanoma
  GI50: 425 nM
  TGI: 1580 nM
SF-539 CNS
  GI50: 343 nM
  TGI: 1540 nM
NCI-H460 lung
  GI50: 149 nM
  TGI: 571 nM
TK-10 renal
  GI50: 553 nM
  TGI: 4150 nM
HOP-62 NSCLC
  GI50: 211 nM
  TGI: 2330 nM
OVCAR-3 ovarian
  GI50: 295 nM
  TGI: 1420 nM
SN12C renal
  GI50: 187 nM
  TGI: 1650 nM
NCI-H522 lung
  GI50: 350 nM
  TGI: 1910 nM
HCT-15 colon
  GI50: 217 nM
  TGI: 1310 nM
SK-MEL-2 melanoma
  GI50: 455 nM
  TGI: 2010 nM
MOLT-4 leukemia
  GI50: 286 nM
  TGI: 2380 nM
NCI-H23 lung
  GI50: 273 nM
  TGI: 1340 nM
MDA-MB-231 breast
  GI50: 348 nM
  TGI: 1790 nM
SK-OV-3 ovarian
  GI50: 324 nM
  TGI: 1350 nM
K-562 leukemia
  GI50: 264 nM
  TGI: 1680 nM
LOX IMVI melanoma
  GI50: 255 nM
  TGI: 1210 nM
CCRF-CEM leukemia
  GI50: 328 nM
  TGI: 2610 nM
PC-3 prostate
  GI50: 367 nM
  TGI: 2140 nM
M14 melanoma
  GI50: 298 nM
  TGI: 1220 nM
SNB-75 CNS
  GI50: 434 nM
  TGI: 1700 nM
UACC-62 melanoma
  GI50: 232 nM
  TGI: 1030 nM
A498 renal
  GI50: 30.5 nM
  TGI: 169 nM
HCC-2998 colon
  GI50: 465 nM
  TGI: 1930 nM
